System: Digitaria sanguinalis
Test: Post-emergence treatment, herbicidal efficacy on large crabgrass
Assay type: in vivo
Conditions: post-emergence, 125 g/ha, 4 weeks after spraying, scale 0 to 10
Experimental: (§1) A rectangular plastic pot having a surface area of 300 cm^2 was filled with sandy loam soil and mixed bed soil which were mixed at a ratio of 1:1, and then, barnyardrass (Echinochloa crusgalli), large crabgrass (Digitaria sanguinalis), blackgrass (Alopecurus myosuroides), and annual bluegrass (Poa annua), which are grass weeds, were seeded thereto. In a pot that was prepared as described above, seeds of corn, soybean, cotton, wheat, and rice were seeded. The pots were irrigated, and one day after, chemicals were sprayed thereto. The spraying was performed by using a track sprayer (R&D Sprayer, USA) equipped with a Teejet 8002 (Spraying Systems Co., USA) nozzle, and a spraying amount was adjusted at 300 L/ha. A spraying solution was prepared by dissolving test materials or references in acetone and adding the same amount of 0.2%(v/v) tween 20 aqueous solution thereto. Application rates were 500, 250, 125, and 62.5 g/ha. The pots were placed in a greenhouse in which during day, the temperature was maintained at a temperature of 25 to 30° C., and during night, the temperature was maintained at a temperature of 15 to 25° C., and the pots were periodically irrigated. Four weeks after the spraying the test materials or References, effects and phytotoxicity of the respective weeds and crops were evaluated in a scale of 0 to 10 (0: no effects, 10: complete death), and results thereof are shown in Table 4 below.
(§2) Pots containing crops and weeds were prepared in the same manner as in Example 7, and then, in the second week in which crops and weeds entered into about 3 leaf stage, the test materials and the references were sprayed thereto in the same manner as described above. The rates were 1,000, 500, 250, and 125 g/ha. Four weeks after the spraying of the test materials or the references, herbicidal efficacy and phytotoxicity to the respective weeds and crops were evaluated in a scale of 0 to 10 (0: no effects, 10: complete death).

Structure (SMILES) | Herbicidal efficacy, Digitaria sanguinalis
Cc1cccc(C2=NOC(C)(COCc3c(F)cccc3F)C2)c1 (stereo not drawn) [Reference F] | 0

Same assay, conditions: post-emergence, 250 g/ha, 4 weeks after spraying, scale 0 to 10

Structure (SMILES) | Herbicidal efficacy, Digitaria sanguinalis
Cc1cccc(C2=NOC(C)(COCc3c(F)cccc3F)C2)c1 (stereo not drawn) [Reference F] | 3

Same assay, conditions: post-emergence, 500 g/ha, 4 weeks after spraying, scale 0 to 10

Structure (SMILES) | Herbicidal efficacy, Digitaria sanguinalis
Cc1cccc(C2=NOC(C)(COCc3c(F)cccc3F)C2)c1 (stereo not drawn) [Reference F] | 4

Same assay, conditions: post-emergence, 1,000 g/ha, 4 weeks after spraying, scale 0 to 10

Structure (SMILES) | Herbicidal efficacy, Digitaria sanguinalis
Cc1cccc(C2=NOC(C)(COCc3c(F)cccc3F)C2)c1 (stereo not drawn) [Reference F] | 6

System: Cotton
Test: Pre-emergence treatment, phytotoxicity to cotton
Assay type: in vivo
Conditions: 500 g/ha, 4 weeks after spraying, scale 0 to 10 (0: no effects, 10: complete death)
Experimental: as §1

Structure (SMILES) | Phytotoxicity, Cotton
Cc1cccc(C2=NOC(C)(COCc3c(F)cccc3F)C2)c1 (stereo not drawn) [Reference F] | 0

System: Alopecurus myosuroides
Test: Post-emergence treatment, herbicidal efficacy on blackgrass
Assay type: in vivo
Conditions: post-emergence, 125 g/ha, 4 weeks after spraying, scale 0 to 10
Experimental: as §1, §2

Structure (SMILES) | Herbicidal efficacy, Alopecurus myosuroides
Cc1cccc(C2=NOC(C)(COCc3c(F)cccc3F)C2)c1 (stereo not drawn) [Reference F] | 0

Same assay, conditions: post-emergence, 250 g/ha, 4 weeks after spraying, scale 0 to 10

Structure (SMILES) | Herbicidal efficacy, Alopecurus myosuroides
Cc1cccc(C2=NOC(C)(COCc3c(F)cccc3F)C2)c1 (stereo not drawn) [Reference F] | 0

Same assay, conditions: post-emergence, 500 g/ha, 4 weeks after spraying, scale 0 to 10

Structure (SMILES) | Herbicidal efficacy, Alopecurus myosuroides
Cc1cccc(C2=NOC(C)(COCc3c(F)cccc3F)C2)c1 (stereo not drawn) [Reference F] | 2

Same assay, conditions: post-emergence, 1,000 g/ha, 4 weeks after spraying, scale 0 to 10

Structure (SMILES) | Herbicidal efficacy, Alopecurus myosuroides
Cc1cccc(C2=NOC(C)(COCc3c(F)cccc3F)C2)c1 (stereo not drawn) [Reference F] | 4

System: Corn
Test: Post-emergence treatment, phytotoxicity to corn
Assay type: in vivo
Conditions: post-emergence (about 3 leaf stage), 1,000 g/ha, 4 weeks after spraying, scale 0 to 10 (0: no effects, 10: complete death)
Experimental: as §1, §2

Structure (SMILES) | Phytotoxicity, Corn
Cc1cccc(C2=NOC(C)(COCc3c(F)cccc3F)C2)c1 (stereo not drawn) [Reference F] | 2

System: Rice
Test: Pre-emergence treatment, phytotoxicity to rice
Assay type: in vivo
Conditions: 500 g/ha, 4 weeks after spraying, scale 0 to 10 (0: no effects, 10: complete death)
Experimental: as §1

Structure (SMILES) | Phytotoxicity, Rice
Cc1cccc(C2=NOC(C)(COCc3c(F)cccc3F)C2)c1 (stereo not drawn) [Reference F] | 0

System: Alopecurus myosuroides
Test: Pre-emergence treatment, herbicidal efficacy on blackgrass
Assay type: in vivo
Conditions: 62.5 g/ha, 4 weeks after spraying, scale 0 to 10
Experimental: as §1

Structure (SMILES) | Herbicidal efficacy, Alopecurus myosuroides
Cc1cccc(C2=NOC(C)(COCc3c(F)cccc3F)C2)c1 (stereo not drawn) [Reference F] | 0

Same assay, conditions: 125 g/ha, 4 weeks after spraying, scale 0 to 10

Structure (SMILES) | Herbicidal efficacy, Alopecurus myosuroides
Cc1cccc(C2=NOC(C)(COCc3c(F)cccc3F)C2)c1 (stereo not drawn) [Reference F] | 0

Same assay, conditions: 250 g/ha, 4 weeks after spraying, scale 0 to 10

Structure (SMILES) | Herbicidal efficacy, Alopecurus myosuroides
Cc1cccc(C2=NOC(C)(COCc3c(F)cccc3F)C2)c1 (stereo not drawn) [Reference F] | 0

Same assay, conditions: 500 g/ha, 4 weeks after spraying, scale 0 to 10

Structure (SMILES) | Herbicidal efficacy, Alopecurus myosuroides
Cc1cccc(C2=NOC(C)(COCc3c(F)cccc3F)C2)c1 (stereo not drawn) [Reference F] | 3

System: Rice
Test: Post-emergence treatment, phytotoxicity to rice
Assay type: in vivo
Conditions: post-emergence (about 3 leaf stage), 1,000 g/ha, 4 weeks after spraying, scale 0 to 10 (0: no effects, 10: complete death)
Experimental: as §1, §2

Structure (SMILES) | Phytotoxicity, Rice
Cc1cccc(C2=NOC(C)(COCc3c(F)cccc3F)C2)c1 (stereo not drawn) [Reference F] | 0

System: Wheat
Test: Post-emergence treatment, phytotoxicity to wheat
Assay type: in vivo
Conditions: post-emergence (about 3 leaf stage), 1,000 g/ha, 4 weeks after spraying, scale 0 to 10 (0: no effects, 10: complete death)
Experimental: as §1, §2

Structure (SMILES) | Phytotoxicity, Wheat
Cc1cccc(C2=NOC(C)(COCc3c(F)cccc3F)C2)c1 (stereo not drawn) [Reference F] | 0

System: Poa annua
Test: Pre-emergence treatment, herbicidal efficacy on annual bluegrass
Assay type: in vivo
Conditions: 62.5 g/ha, 4 weeks after spraying, scale 0 to 10
Experimental: as §1

Structure (SMILES) | Herbicidal efficacy, Poa annua
Cc1cccc(C2=NOC(C)(COCc3c(F)cccc3F)C2)c1 (stereo not drawn) [Reference F] | 0

Same assay, conditions: 125 g/ha, 4 weeks after spraying, scale 0 to 10

Structure (SMILES) | Herbicidal efficacy, Poa annua
Cc1cccc(C2=NOC(C)(COCc3c(F)cccc3F)C2)c1 (stereo not drawn) [Reference F] | 0

Same assay, conditions: 250 g/ha, 4 weeks after spraying, scale 0 to 10

Structure (SMILES) | Herbicidal efficacy, Poa annua
Cc1cccc(C2=NOC(C)(COCc3c(F)cccc3F)C2)c1 (stereo not drawn) [Reference F] | 5

Same assay, conditions: 500 g/ha, 4 weeks after spraying, scale 0 to 10

Structure (SMILES) | Herbicidal efficacy, Poa annua
Cc1cccc(C2=NOC(C)(COCc3c(F)cccc3F)C2)c1 (stereo not drawn) [Reference F] | 9

From patent US9439432B2, “Phenylisoxazoline-based compound having herbicidal activity and use thereof” (MOGHU RESEARCH CENTER LTD, priority 2011, dated 2016)
